The values that follow come from patent US11761045B2, “Splice variants associated with neomorphic SF3B1 mutants” (Eisai R&D Management Co., Ltd., priority 2015, dated 2023).

Common to all, as to format: cell-based, human
The subject of assay [1] is Nalm-6 SF3B1^K700K cells. In words: Normal and aberrant splicing in Nalm-6 isogenic cells by qPCR. The note with it: increasing concentrations, six hours. Here is the method: (§1) E7107 was also tested in vitro in Nalm-6 isogenic cell lines for the ability to modulate normal and aberrant splicing induced by SF3B1^WT and SF3B1^K700E protein. Nalm-6 isogenic cells were treated with increasing concentrations of E7107 for six hours and RNA was analyzed by qPCR.
(§2) In addition, the ability of E7107 to modulate splicing was tested in mice bearing human tumor xenografts. Nalm-6 isogenic xenograft mice were generated by subcutaneously implanting 10×10^6 Nalm-6 isogenic cells into the flank of CB17-SCID mice, and tumors from these mice were collected at different timepoints after a single intravenous (IV) dose of E7107 (5 mg/kg) and analyzed to determine compound concentrations and splicing regulation. RNA was isolated from the tumors using RiboPure™ RNA purification kit (Ambion®) and used for NanoString® assay or qPCR. The RNA was retrotranscribed according to the instructions of the SuperScript® VILO™ cDNA synthesis kit (Invitrogen™) and 0.04 μl of cDNA was used for qPCR. qPCR for pre-mRNA EIF4A1 and mature mRNA […] and pharmacokinetic evaluation were performed as described in Eskens, F. A. et al. “Phase I pharmacokinetic and pharmacodynamic study of the first-in-class spliceosome inhibitor E7107 in patients with advanced solid tumors.” Clin Cancer Res 19, 6296-6304, doi:10.1158/1078-0432.CCR-13-0485 (2013). The primers and probes used for ZDHHC16 were the following: FW 5′-[…] (SEQ ID NO: 1194), RW 5′ […] (SEQ ID NO: 1195) and probe 5′ FAM […] (SEQ ID NO: 1196). The primers and probes used for COASY were the following: FW 5′-CGGTGGTGCAAGTGGAA (SEQ ID NO: 1197), RW 5′-[…] (SEQ ID NO: 1198) and probe 5′-FAM-[…] (SEQ ID NO: 1199).
Background: In qPCR the cycle at which signal appears reflects the starting amount.

The subject of assay [2] is Nalm-6 SF3B1^K700E cells. The description is as above. The note with it: increasing concentrations, six hours. On the procedure:
as §1, §2

Assay [3] concerns Nalm-6 SF3B1^K700K cells. Put plainly: Splice variant levels in Nalm-6 isogenic cells by NanoString assay. As to conditions: 15 nM. On the procedure: (§3) A NanoString® assay was developed to quantify aberrant and canonical splice variants and was validated using the same cell panel. For the NanoString® assay, 750 ng of purified total RNA was used as template for the nCounter® (NanoString Technologies®) expression assay using a custom panel of NanoString® probes. The sample preparation was set up as recommended (NanoString® Technologies protocol no. C-0003-02) for an overnight hybridization at 65° C. The following day, samples were processed through the automated nCounter® Analysis System Prep Station using the high sensitivity protocol (NanoString® Technologies protocol no. MAN-00029-05) followed by processing through the nCounter® Analysis System Digital Analyzer (protocol no. MAN-00021-01) using 1150 FOVs for detection. Data was downloaded and analyzed for quality control metrics and normalization using the nSolver™ Analysis Software (NanoString Technologies®). The data was first normalized for lane-to-lane variation using the positive assay controls provided by the manufacturer (NanoString® positive controls A-F [containing in vitro transcribed RNA transcripts at concentrations of 128 fM, 32 fM, 8 fM, 2 fM, 0.5 fM, and 0.125 fM, each pre-mixed with NanoString® Reporter CodeSet probes])). Any samples with normalization factors <0.3 and >3 were not considered for further analysis. This was followed by content normalization using the geo-mean of GAPDH, EEF1A1 and RPLP0. All samples were within the recommended 0.1-10 normalization factor range. Each normalized value was then checked to ensure that it was at least two standard deviations higher than the average of background signal recorded for that lane. Any value below that was considered below detection limit. These normalized values were taken for further bioinformatics and statistical analysis.
(§4) To investigate the broader activity of E7107 on normal and aberrant splicing, RNA from Nalm-6 isogenic cells treated for two and six hours at 15 nM was analyzed by NanoString®. […] Normal and aberrant splicing in the isogenic cell lines was also analyzed by RNA-Seq following treatment with one of additional compounds having formulas 1 or 2. […] For the RNA-Seq analysis, cells were washed with PBS after treatment with E7107 or other test compound, and RNA was isolated using PureLink (Life Technology) as reported in the manufacturer's manual. cDNA library preparation, sequencing and raw read filtering was performed as described in Ren, S. et al. “RNA-Seq analysis of prostate cancer in the Chinese population identifies recurrent gene fusions, cancer-associated long noncoding RNAs and aberrant alternative splicings.” Cell Res 22, 806-821, doi:10.1038/cr.2012.30 (2012).

Assay [4] deals with Nalm-6 SF3B1^K700E cells. The assay is described as above. As to conditions: 15 nM. Here is the method: as §3, §4

Take `CC[C@H](O)[C@@H](C)[C@H]1O[C@@H]1C[C@@](C)(O)/C=C/C=C(\C)[C@H]1OC(=O)C[C@H](O)CC[C@@](C)(O)[C@@H](OC(=O)N2CCN(C3CCCCCC3)CC2)/C=C/[C@@H]1C` [Compound E7107]: the “EIF4A1 pre-mRNA level (canonical splicing)” value in the assay with Nalm-6 SF3B1^K700K cells [1] and in the assay with Nalm-6 SF3B1^K700E cells [2] was “accumulation of pre-mRNA for EIF4A1” throughout. For the same molecule, the “SLC25A19 mature mRNA level (canonical splicing)” value in the assay with Nalm-6 SF3B1^K700K cells [1] and in the assay on Nalm-6 SF3B1^K700E cells [2] was “downregulation of the mature mRNA SLC25A19” each time. Besides, the “mature mRNA of abnormally spliced isoform of COASY” value in the assay on Nalm-6 SF3B1^K700E cells [2] was “downregulation of mature mRNA”. In the assay on Nalm-6 SF3B1^K700E cells [2], the “mature mRNA of abnormally spliced isoform of ZDHHC16” value is “downregulation of mature mRNA”. The “inhibition of splicing (all isoforms quantified)” value in the assay with Nalm-6 SF3B1^K700K cells [3] (six hours) and in the assay with Nalm-6 SF3B1^K700E cells [4] (six hours) was “clear inhibition” in each case. In addition, the “inhibition of splicing (gene, WT-associated and MUT-associated isoform expression)” value in the assay on Nalm-6 SF3B1^K700K cells [3] (two hours) and with Nalm-6 SF3B1^K700E cells [4] (two hours) was “partial inhibition of splicing” each time.
